Reference: patent US10544150B2, “NK-3 receptor selective antagonist compounds, pharmaceutical composition and methods for use in NK-3 receptors mediated disorders” (Ogeda SA, priority 2010, dated 2020)

Biological target: human NK-3 receptor (Homo sapiens (Human), UniProt P29371)
Assay: 3H-SB222200 binding competition assay with human NK-3 receptor
Conditions: 3H-SB222200 displacement, CHO cell membranes expressing human NK3 receptor; read-out: Ki range
Method: The affinity of compounds of the invention for the tachykinin receptors was determined by measuring the ability of the compounds of the invention to displace a radiolabeled ligand from its specifics binding site.
^3H-SB222200 Binding Competition Assay with Human NK-3 Receptor
The ability of the compounds of the invention to inhibit the binding of the NK-3 receptor selective antagonist SB222200 was assessed by an in vitro radioligand binding assay. Membranes were prepared from Chinese hamster ovary recombinant cells which express the human NK3 receptor. The membranes were incubated with 5 nM ^3H-SB222200_(ARC) in a HEPES 25 mM/NaCl 0.1M/CaCl2 1 mM/MgCl2 5 Mm/BSA 0.5%/Saponin 10 μg/ml buffer at pH 7.4 and various concentrations of the compounds of the invention. The amount of tritiated SB222200 bound to the receptor was determined after filtration by the quantification of membrane associated radioactivity using the TopCount-NXT reader (Packard). […] In Table 3 biological results obtained using the ^3H-SB222200 binding competition assay with compounds of the invention are set out in tabulated form. In this table the calculated Ki is given. The Ki value obtained (in accordance with the protocol set forth above) is represented as follows: “+++” means Ki<500 nM; “++” means 500 nM≤Ki≤1 μM; “+” means 1 μM<Ki≤5 μM; “#” means Ki>5 μM.

Sequence of human NK-3 receptor (P29371 whole entry): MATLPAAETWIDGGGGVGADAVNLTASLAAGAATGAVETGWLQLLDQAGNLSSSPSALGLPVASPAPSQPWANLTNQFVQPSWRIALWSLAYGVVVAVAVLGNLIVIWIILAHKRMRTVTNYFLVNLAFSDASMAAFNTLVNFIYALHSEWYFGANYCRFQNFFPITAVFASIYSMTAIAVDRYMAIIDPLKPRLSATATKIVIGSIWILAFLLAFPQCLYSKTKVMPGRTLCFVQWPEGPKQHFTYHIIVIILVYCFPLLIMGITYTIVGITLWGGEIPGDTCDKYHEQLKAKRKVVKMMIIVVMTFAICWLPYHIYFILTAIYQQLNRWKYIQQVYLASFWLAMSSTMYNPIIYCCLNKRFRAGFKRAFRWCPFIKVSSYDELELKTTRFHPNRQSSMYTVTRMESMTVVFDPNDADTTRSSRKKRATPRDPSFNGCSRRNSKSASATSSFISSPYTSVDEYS

Row | Compound | Ki [nM]
1 | CC1c2nnc(-c3csc(-c4ccc(F)cc4)n3)n2CCN1C(=O)c1ccc(-c2ccccc2)cc1 (centres unmarked) [Compound 76, [1,1′-biphenyl]-4-yl(3-(2-(4-fluorophenyl)thiazol-4-yl)-8-methyl-5,6-dihydro-[1,2,4]triazolo[4,3-a]pyrazin-7(8H)-yl)methanone] | < 500
2 | CC1c2nnc(-c3csc(-c4ccc(F)cc4F)n3)n2CCN1C(=O)c1ccc(F)cc1 (centres unmarked) [Compound 77, (3-(2-(2,4-difluorophenyl)thiazol-4-yl)-8-methyl-5,6-dihydro-[1,2,4]triazolo[4,3-a]pyrazin-7(8H)-yl)(4-fluorophenyl)methanone] | < 500
3 | CC1c2nnc(-c3csc(-c4ccc(F)cc4)n3)n2CCN1C(=O)c1ccc(-c2cccs2)cc1 (centres unmarked) [Compound 78, (3-(2-(4-fluorophenyl)thiazol-4-yl)-8-methyl-5,6-dihydro-[1,2,4]triazolo[4,3-a]pyrazin-7(8H)-yl)(4-(thiophen-2-yl)phenyl)methanone] | < 500
4 | CC1c2nnc(-c3csc(-c4ccc(F)cc4F)n3)n2CCN1C(=O)c1ccc(-c2ccccc2)cc1 (centres unmarked) [Compound 79, [1,1′-biphenyl]-4-yl(3-(2-(2,4-difluorophenyl)thiazol-4-yl)-8-methyl-5,6-dihydro-[1,2,4]triazolo[4,3-a]pyrazin-7(8H)-yl)methanone] | < 500
5 | CC1c2nnc(-c3csc(-c4ccc(F)cc4F)n3)n2CCN1C(=O)c1ccc(-c2cccs2)cc1 (centres unmarked) [Compound 80, (3-(2-(2,4-difluorophenyl)thiazol-4-yl)-8-methyl-5,6-dihydro-[1,2,4]triazolo[4,3-a]pyrazin-7(8H)-yl)(4-(thiophen-2-yl)phenyl)methanone] | < 500
6 | CC1c2nnc(-c3nc(-c4ccccc4)no3)n2CCN1C(=O)c1ccc(-c2cccs2)cc1 (centres unmarked) [Compound 85, (8-methyl-3-(3-phenyl-1,2,4-oxadiazol-5-yl)-5,6-dihydro-[1,2,4]triazolo[4,3-a]pyrazin-7(8H)-yl)(4-(thiophen-2-yl)phenyl)methanone] | < 500
7 | O=C(c1ccc(-c2ccccc2)cn1)N1CCn2c(nnc2-c2ccc3ccccc3n2)C1 [Compound 90, (5-phenylpyridin-2-yl)(3-(quinolin-2-yl)-5,6-dihydro-[1,2,4]triazolo[4,3-a]pyrazin-7(8H)-yl)methanone] | < 500
8 | O=C(c1ccc(-c2ccccc2)nc1)N1CCn2c(nnc2-c2ccc3ccccc3n2)C1 [Compound 91, (6-phenylpyridin-3-yl)(3-(quinolin-2-yl)-5,6-dihydro-[1,2,4]triazolo[4,3-a]pyrazin-7(8H)-yl)methanone] | < 500
9 | O=C(c1cnc(-c2ccccc2)nc1)N1CCn2c(nnc2-c2ccc3ccccc3n2)C1 [Compound 92, (2-phenylpyrimidin-5-yl)(3-(quinolin-2-yl)-5,6-dihydro-[1,2,4]triazolo[4,3-a]pyrazin-7(8H)-yl)methanone] | 1000 to 5000
10 | O=C(C1CCC(c2ccccc2)CC1)N1CCn2c(nnc2-c2ccc3ccccc3n2)C1 (centres unmarked) [Compound 93, (4-phenylcyclohexyl)(3-(quinolin-2-yl)-5,6-dihydro-[1,2,4]triazolo[4,3-a]pyrazin-7(8H)-yl)methanone] | 1000 to 5000
11 | CC(C)CC(=O)N1CCn2c(nnc2-c2ccc3ccccc3n2)C1 [Compound 95, 3-methyl-1-(3-(quinolin-2-yl)-5,6-dihydro-[1,2,4]triazolo[4,3-a]pyrazin-7(8H)-yl)butan-1-one] | 1000 to 5000
12 | O=C(c1ccccc1-c1ccccc1)N1CCn2c(nnc2-c2ccc3ccccc3n2)C1 [Compound 96, [1,1′-biphenyl]-2-yl(3-(quinolin-2-yl)-5,6-dihydro-[1,2,4]triazolo[4,3-a]pyrazin-7(8H)-yl)methanone] | > 5000
13 | N#Cc1ccc(-c2ccc(C(=O)N3CCn4c(nnc4-c4ccc5ccccc5n4)C3)cc2)cc1 [Compound 103, 4′-(3-(quinolin-2-yl)-5,6,7,8-tetrahydro-[1,2,4]triazolo[4,3-a]pyrazine-7-carbonyl)-[1,1′-biphenyl]-4-carbonitrile] | 1000 to 5000
14 | CC1Cn2c(nnc2-c2csc(-c3ccc(F)cc3)n2)CN1C(=O)c1ccc(-c2cccs2)cc1 (centres unmarked) [Compound 107, (3-(2-(4-fluorophenyl)thiazol-4-yl)-6-methyl-5,6-dihydro-[1,2,4]triazolo[4,3-a]pyrazin-7(8H)-yl)(4-(thiophen-2-yl)phenyl)methanone] | 500 to 1000
15 | CC1CN(C(=O)c2ccc(-c3cccs3)cc2)Cc2nnc(-c3csc(-c4ccc(F)cc4)n3)n21 (centres unmarked) [Compound 108, (3-(2-(4-fluorophenyl)thiazol-4-yl)-5-methyl-5,6-dihydro-[1,2,4]triazolo[4,3-a]pyrazin-7(8H)-yl)(4-(thiophen-2-yl)phenyl)methanone] | 500 to 1000
16 | CC1c2nnc(-c3csc(-c4ccc(F)cc4)n3)n2CCN1C(=O)c1ccc(F)c(F)c1 (centres unmarked) [Compound 110, (3,4-difluorophenyl)(3-(2-(4-fluorophenyl)thiazol-4-yl)-8-methyl-5,6-dihydro-[1,2,4]triazolo[4,3-a]pyrazin-7(8H)-yl)methanone] | < 500
17 | CC1c2nnc(-c3csc(-c4ccc(F)cc4)n3)n2CCN1C(=O)c1cc(F)c(F)c(F)c1 (centres unmarked) [Compound 113, (3-(2-(4-fluorophenyl)thiazol-4-yl)-8-methyl-5,6-dihydro-[1,2,4]triazolo[4,3-a]pyrazin-7(8H)-yl)(3,4,5-trifluorophenyl)methanone] | < 500
18 | C[C@@H]1c2nnc(-c3ccc4ccccc4n3)n2CCN1C(=O)c1ccc(F)cc1 [Compound 115, (R)-(4-fluorophenyl)(8-methyl-3-(quinolin-2-yl)-5,6-dihydro-[1,2,4]triazolo[4,3-a]pyrazin-7(8H)-yl)methanone] | < 500
19 | C[C@@H]1c2nnc(-c3csc(N4CCOCC4)n3)n2CCN1C(=O)c1ccc(-c2ccccc2)cc1 [Compound 118, (R)-[1,1′-biphenyl]-4-yl(8-methyl-3-(2-morpholinothiazol-4-yl)-5,6-dihydro-[1,2,4]triazolo[4,3-a]pyrazin-7(8H)-yl)methanone] | < 500
20 | C[C@@H]1c2nnc(-c3coc(-c4ccccc4)n3)n2CCN1C(=O)c1ccc(-c2ccccc2)cc1 [Compound 131, (R)-[1,1′-biphenyl]-4-yl(8-methyl-3-(2-phenyloxazol-4-yl)-5,6-dihydro-[1,2,4]triazolo[4,3-a]pyrazin-7(8H)-yl)methanone] | < 500
21 | C[C@@H]1c2nnc(-c3csc(N4CCOCC4)n3)n2CCN1C(=O)c1ccc(-c2ccc(F)cc2)cc1 [Compound 134, (R)-(4′-fluoro-[1,1′-biphenyl]-4-yl)(8-methyl-3-(2-morpholinothiazol-4-yl)-5,6-dihydro-[1,2,4]triazolo[4,3-a]pyrazin-7(8H)-yl)methanone] | < 500
22 | C[C@@H]1c2nnc(-c3csc(-c4ccccc4)n3)n2CCN1C(=O)c1ccc(-c2cccs2)cc1 [Compound 135, (R)-(8-methyl-3-(2-phenylthiazol-4-yl)-5,6-dihydro-[1,2,4]triazolo[4,3-a]pyrazin-7(8H)-yl)(4-(thiophen-2-yl)phenyl)methanone] | < 500
23 | C[C@@H]1c2nnc(-c3csc(N4CCOCC4)n3)n2CCN1C(=O)c1ccc(-c2cccs2)cc1 [Compound 136, (R)-(8-methyl-3-(2-morpholinothiazol-4-yl)-5,6-dihydro-[1,2,4]triazolo[4,3-a]pyrazin-7(8H)-yl)(4-(thiophen-2-yl)phenyl)methanone] | < 500
24 | C[C@H]1c2nnc(-c3ccccn3)n2CCN1C(=O)c1ccc(F)cc1 [Compound 159, (S)-(4-fluorophenyl)(8-methyl-3-(pyridin-2-yl)-5,6-dihydro-[1,2,4]triazolo[4,3-a]pyrazin-7(8H)-yl)methanone] | > 5000
25 | C[C@H]1c2nnc(-c3csc(-c4ccc(F)cc4)n3)n2CCN1C(=O)c1ccc(F)cc1 [Compound 160, (S)-(4-fluorophenyl)(3-(2-(4-fluorophenyl)thiazol-4-yl)-8-methyl-5,6-dihydro-[1,2,4]triazolo[4,3-a]pyrazin-7(8H)-yl)methanone] | 1000 to 5000
26 | C[C@H]1c2nnc(-c3csc(N4CCOCC4)n3)n2CCN1C(=O)c1ccc(-c2ccc(F)cc2)cc1 [Compound 161, (S)-(4′-fluoro-[1,1′-biphenyl]-4-yl)(8-methyl-3-(2-morpholinothiazol-4-yl)-5,6-dihydro-[1,2,4]triazolo[4,3-a]pyrazin-7(8H)-yl)methanone] | 1000 to 5000
27 | C[C@H]1c2nnc(-c3ccc4ccccc4n3)n2CCN1C(=O)c1ccc(F)cc1 [Compound 162, (S)-(4-fluorophenyl)(8-methyl-3-(quinolin-2-yl)-5,6-dihydro-[1,2,4]triazolo[4,3-a]pyrazin-7(8H)-yl)methanone] | < 500
28 | C[C@H]1c2nnc(-c3ccc4ccccc4n3)n2CCN1C(=O)c1ccc(-c2cccs2)cc1 [Compound 163, (S)-(8-methyl-3-(quinolin-2-yl)-5,6-dihydro-[1,2,4]triazolo[4,3-a]pyrazin-7(8H)-yl)(4-(thiophen-2-yl)phenyl)methanone] | 500 to 1000
29 | C[C@H]1c2nnc(-c3csc(-c4ccc(F)cc4)n3)n2CCN1C(=O)c1ccc(F)cc1 [Compound 164, (S)-(4-fluorophenyl)(3-(2-(4-fluorophenyl)thiazol-4-yl)-8-methyl-5,6-dihydro-[1,2,4]triazolo[4,3-a]pyrazin-7(8H)-yl)methanone] | < 500
